Experimental data from publication PMC9090415, “Discovery of small molecule inhibitors of Plasmodium falciparum apicoplast DNA polymerase” (Journal of Enzyme Inhibition and Medicinal Chemistry, 2022).

Molecular target: T1, bacteriophage T4 DNA polymerase (Enterobacteria phage T4, UniProt P04415)
T1 construct: made in house
T1 sequence (P04415 1-898): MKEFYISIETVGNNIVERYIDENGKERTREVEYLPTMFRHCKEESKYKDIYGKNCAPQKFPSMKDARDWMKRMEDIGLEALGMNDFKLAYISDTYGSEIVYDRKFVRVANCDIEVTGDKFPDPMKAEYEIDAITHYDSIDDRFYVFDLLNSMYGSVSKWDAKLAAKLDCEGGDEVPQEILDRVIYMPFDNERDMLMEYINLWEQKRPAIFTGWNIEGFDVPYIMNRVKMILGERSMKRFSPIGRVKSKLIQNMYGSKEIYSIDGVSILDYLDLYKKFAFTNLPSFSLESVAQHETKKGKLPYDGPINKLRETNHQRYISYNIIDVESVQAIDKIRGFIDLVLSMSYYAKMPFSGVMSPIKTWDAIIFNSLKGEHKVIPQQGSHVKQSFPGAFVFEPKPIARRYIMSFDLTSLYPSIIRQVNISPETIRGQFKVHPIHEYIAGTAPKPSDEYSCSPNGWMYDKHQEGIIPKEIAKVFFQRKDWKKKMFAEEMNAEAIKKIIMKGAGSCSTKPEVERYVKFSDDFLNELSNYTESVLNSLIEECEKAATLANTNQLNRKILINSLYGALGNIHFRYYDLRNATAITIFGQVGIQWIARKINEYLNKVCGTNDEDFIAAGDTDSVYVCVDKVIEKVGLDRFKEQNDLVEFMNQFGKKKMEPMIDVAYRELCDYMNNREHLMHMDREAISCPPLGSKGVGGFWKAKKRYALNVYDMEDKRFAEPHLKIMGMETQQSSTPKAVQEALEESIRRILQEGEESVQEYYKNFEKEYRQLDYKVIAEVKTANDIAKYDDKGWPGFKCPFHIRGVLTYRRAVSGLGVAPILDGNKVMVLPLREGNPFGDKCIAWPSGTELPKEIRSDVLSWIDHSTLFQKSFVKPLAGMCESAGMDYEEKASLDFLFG
Assay: Counter-screen against bacteriophage T4 DNA polymerase
Format: biochemical
Conditions: for % inhibition T4 10' 2.5 / % inhibition T4 10' 5 / % inhibition T4 10' 10 / % inhibition T4 10' 20 / % inhibition T4 10' 40 / % inhibition T4 10' 80: read at 10'
In short: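 IC50 values come from dose-response testing of each compound against T4 DNA polymerase. This B-family polymerase was purified in-house and used as the counter-screen.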

COc1ccccc1CC(=O)N1CCc2c(nc3cc(-c4ccccc4Cl)[nH]n3c2=O)C1 [Molecule 49, COc1ccccc1CC(=O)N1CCc2c(C1)nc1n(c2=O)[nH]c(c1)c1ccccc1Cl]
% inhibition T4 10' 2.5 (DRC-1, concentration 2.5): -1.17%
% inhibition T4 10' 5 (DRC-1, concentration 5): -4%
% inhibition T4 10' 10 (DRC-1, concentration 10): -5.62%
% inhibition T4 10' 20 (DRC-1, concentration 20): -14%
% inhibition T4 10' 40 (DRC-1, concentration 40): -19%
% inhibition T4 10' 80 (DRC-1, concentration 80): -3%
% inhibition T4 70' 2.5 (DRC-1, read at 70', concentration 2.5): -2.29%
% inhibition T4 70' 5 (DRC-1, read at 70', concentration 5): -6%
% inhibition T4 70' 10 (DRC-1, read at 70', concentration 10): -6%
% inhibition T4 70' 20 (DRC-1, read at 70', concentration 20): -13%
% inhibition T4 70' 40 (DRC-1, read at 70', concentration 40): -18%
% inhibition T4 70' 80 (DRC-1, read at 70', concentration 80): -7%
% inhibition T4 130' 2.5 (DRC-1, read at 130', concentration 2.5): -4%
% inhibition T4 130' 5 (DRC-1, read at 130', concentration 5): -6%
% inhibition T4 130' 10 (DRC-1, read at 130', concentration 10): -5%
% inhibition T4 130' 20 (DRC-1, read at 130', concentration 20): -12%
% inhibition T4 130' 40 (DRC-1, read at 130', concentration 40): -13%
% inhibition T4 130' 80 (DRC-1, read at 130', concentration 80): -11%
% inhibition T4 10' 2.5 (DRC-2, concentration 2.5): -1%
% inhibition T4 10' 5 (DRC-2, concentration 5): -28%
% inhibition T4 10' 10 (DRC-2, concentration 10): -40%
% inhibition T4 10' 20 (DRC-2, concentration 20): -50%
% inhibition T4 10' 40 (DRC-2, concentration 40): -55%
% inhibition T4 10' 80 (DRC-2, concentration 80): -54%
% inhibition T4 40' 2.5 (DRC-2, read at 40', concentration 2.5): -2.7%
% inhibition T4 40' 5 (DRC-2, read at 40', concentration 5): -24%
% inhibition T4 40' 10 (DRC-2, read at 40', concentration 10): -34%
% inhibition T4 40' 20 (DRC-2, read at 40', concentration 20): -45%
% inhibition T4 40' 40 (DRC-2, read at 40', concentration 40): -51%
% inhibition T4 40' 80 (DRC-2, read at 40', concentration 80): -47%
% inhibition T4 90' 2.5 (DRC-2, read at 90', concentration 2.5): -4%
% inhibition T4 90' 5 (DRC-2, read at 90', concentration 5): -22%
% inhibition T4 90' 10 (DRC-2, read at 90', concentration 10): -31%
% inhibition T4 90' 20 (DRC-2, read at 90', concentration 20): -41%
% inhibition T4 90' 40 (DRC-2, read at 90', concentration 40): -49%
% inhibition T4 90' 80 (DRC-2, read at 90', concentration 80): -47%
% inhibition T4 180' 2.5 (DRC-2, read at 180', concentration 2.5): -9%
% inhibition T4 180' 5 (DRC-2, read at 180', concentration 5): -24%
% inhibition T4 180' 10 (DRC-2, read at 180', concentration 10): -28%
% inhibition T4 180' 20 (DRC-2, read at 180', concentration 20): -39%
% inhibition T4 180' 40 (DRC-2, read at 180', concentration 40): -47%
% inhibition T4 180' 80 (DRC-2, read at 180', concentration 80): -46%

O=C(NC(C(Cl)Cl)S(=O)(=O)c1ccccc1)c1ccccc1 (stereo not drawn) [KU0045239]
% inhibition T4 10' (DRC-2, concentration 10): -19%
% inhibition T4 40' (DRC-2, concentration 5): -21%
% inhibition T4 40' (DRC-2, concentration 10): -19%
% inhibition T4 40' (DRC-2, concentration 20): -26%
% inhibition T4 40' (DRC-2, concentration 40): -26%
% inhibition T4 90' (DRC-2, concentration 2.5): -26%
% inhibition T4 90' (DRC-2, concentration 5): -17%
% inhibition T4 90' (DRC-2, concentration 20): -18%
% inhibition T4 90' (DRC-2, concentration 40): -18%
% inhibition T4 180' (DRC-2, concentration 5): -21%
% inhibition T4 180' (DRC-2, concentration 10): -18%
% inhibition T4 180' (DRC-2, concentration 20): -17%

COc1ccc(C(=O)N2CCc3c(nc4cc(-c5ccccc5Cl)[nH]n4c3=O)C2)cn1 [Molecule 26, COc1ccc(cn1)C(=O)N1CCc2c(C1)nc1n(c2=O)[nH]c(c1)c1ccccc1Cl]
% inhibition T4 10' (DRC-2, concentration 2.5): -4%
% inhibition T4 10' (DRC-2, concentration 10): -17%
% inhibition T4 40' (DRC-2, concentration 2.5): -4%
% inhibition T4 40' (DRC-2, concentration 40): -23%
% inhibition T4 90' (DRC-2, concentration 5): -10%
% inhibition T4 90' (DRC-2, concentration 80): -23%
% inhibition T4 180' (DRC-2, concentration 10): -10%
% inhibition T4 180' (DRC-2, concentration 40): -17%
% inhibition T4 180' (DRC-2, concentration 80): -17%

Cc1ccc(-n2nnc(C(=O)O)c2-c2ccccn2)c(F)c1 [Molecule 54, Cc1ccc(c(c1)F)n1nnc(c1c1ccccn1)C(=O)O]
% inhibition T4 10' (DRC-2, concentration 2.5): 18%
% inhibition T4 10' (DRC-2, concentration 5): 23%
% inhibition T4 10' (DRC-2, concentration 10): 30%
% inhibition T4 10' (DRC-2, concentration 40): 27%
% inhibition T4 10' (DRC-2, concentration 80): 24%
% inhibition T4 40' (DRC-2, concentration 2.5): 18%
% inhibition T4 40' (DRC-2, concentration 5): 23%
% inhibition T4 40' (DRC-2, concentration 10): 30%
% inhibition T4 40' (DRC-2, concentration 40): 27%
% inhibition T4 40' (DRC-2, concentration 80): 24%
% inhibition T4 90' (DRC-2, concentration 2.5): 17%
% inhibition T4 90' (DRC-2, concentration 10): 27%
% inhibition T4 90' (DRC-2, concentration 20): 22%
% inhibition T4 90' (DRC-2, concentration 40): 23%
% inhibition T4 90' (DRC-2, concentration 80): 22%
% inhibition T4 180' (DRC-2, concentration 10): 22%
% inhibition T4 180' (DRC-2, concentration 20): 17%
% inhibition T4 180' (DRC-2, concentration 40): 20%
% inhibition T4 180' (DRC-2, concentration 80): 20%

COc1cccc(Oc2c(C(F)(F)F)oc3cc(OC(=O)N(C)C)ccc3c2=O)c1 [Molecule 52, COc1cccc(c1)Oc1c(=O)c2ccc(cc2oc1C(F)(F)F)OC(=O)N(C)C]
% inhibition T4 10' (DRC-2, concentration 20): 10%
% inhibition T4 10' (DRC-2, concentration 40): 17%
% inhibition T4 40' (DRC-2, concentration 10): 7%
% inhibition T4 40' (DRC-2, concentration 20): 10%
% inhibition T4 90' (DRC-2, concentration 5): 3%
% inhibition T4 90' (DRC-2, concentration 10): 7%
% inhibition T4 180' (DRC-2, concentration 20): 3%
% inhibition T4 180' (DRC-2, concentration 80): 17%
